# In patent US7179804B2, “Tachykinin receptor antagonists” (Eli Lilly and Company, priority 2002, dated 2007):
row,Compound,melting point [°C]
1,CC(C)(O)c1onc(-c2ccccc2Cl)c1C(=O)c1nnn(Cc2cc(C(F)(F)F)cc(C(F)(F)F)c2)c1N1CCOCC1 [Example 73],188
2,"CC(C)(O)c1onc(-c2ccccc2Cl)c1C(=O)c1nnn(Cc2cc(C(F)(F)F)cc(C(F)(F)F)c2)c1-c1cccnc1 [Example 79, [1-(3,5-bis-trifluoromethyl-benzyl)-5-pyridin-3-yl-1H-[1,2,3]triazol-4-yl]-[3-(2-chloro-phenyl)-5-(1-hydroxy-1-methyl-ethyl)-isoxazol-4-yl]-methanone]",105
3,"CC(O)c1onc(-c2ccccc2Cl)c1C(=O)c1nnn(Cc2cc(C(F)(F)F)cc(C(F)(F)F)c2)c1N1CCOCC1 (centres unmarked) [Example 81, [1-(3,5-bis-trifluoromethyl-benzyl)-5-morpholin-4-yl-1H-[1,2,3]triazol-4-yl]-[3-(2-chloro-phenyl)-5-(1-hydroxy-ethyl)-isoxazol-4-yl]-methanone]",145 to 146
4,"CC(C)(O)c1onc(-c2ccccc2Cl)c1C(=O)c1nnn(Cc2cc(F)cc(C(F)(F)F)c2)c1-c1cccnc1 [Example 211, [3-(2-chloro-phenyl)-5-(1-hydroxy-1-methyl-ethyl)-isoxazol-4-yl]-[1-(3-fluoro-5-trifluoromethyl-benzyl)-5-pyridin-3-yl-1H-[1,2,3]triazol-4-yl]-methanone]",180
5,"O=C(c1nnn(Cc2cc(C(F)(F)F)cc(C(F)(F)F)c2)c1-n1ccnc1)c1c(CO)noc1-c1ccccc1Cl [Example 269, [1-(3,5-bistrifluoromethylbenzyl)-5-imidazol-1-yl-1H-[1,2,3]triazol-4-yl]-[5-(2-chlorophenyl)-3-hydroxymethyl-isoxazol-4-yl]-methanone]",148.8
